Values quoted from earlier work in patent US6399785B1, “Multiply-substituted fullerenes” (C-Sixty, Inc., priority 1995, dated 2002).
Where two headings read alike, the source gives them in different places.

What was measured:
HIV [1] = conditions: H9 cells chronically infected with HIV, in vitro
HIV [2] = conditions: human PBMC acutely infected with HIV, in vitro

bis (monosuccinimide) derivative of p,p′-bis (2-aminoethyl) diphenyl C60
antiviral activity (HIV [1]): showed antiviral activity | antiviral activity (HIV [2]): showed antiviral activity
